In patent US20260102388A1 (priority 2022, published 2026):

Test system: SD rats
Test: Effect of compound implant of naltrexone on spontaneous activity
Details: implants 3 tablets/animal (diazepam 2 mg/kg), 60 min recording, X ± SEM
Experimental: Test animals: SPF-grade Sprague-Dawley (SD) rats, weighing 200±20 g, and they were fed adaptively.
Animal grouping and administration: Animals were divided into 8 groups with 12 animals in each group, half male and half female. In the experiment, animals were divided into positive control group (diazepam group, with a dose of 2 mg/kg), negative control group (normal saline), Example 1 group, Example 2 group, Comparative Example 2 group, Comparative Example 4 group, Comparative Example 5 group (dose: 3 tablets/animal), and fasten for 12 h before administration. The dosage volume for rats was 10 mL/kg.
The experiment was divided into three periods: adaptation period, pre-testing period and post-administration testing period. […]
Open field adaptation: After environmental adaptation, single rat/mouse was put into a spontaneous activity box for 60 min to adapt to the experiment box, and the spontaneous activity within 60 min was recorded, the general adaptation was 2-3 days to reduce the impact of environmental stimulation.
Baseline test: Single rat/mouse was put into a spontaneous activity box for 40 min to adapt to the experimental box, and spontaneous activity within 40 min was recorded, then divided equally to groups according to basic spontaneous activity. […]
Data were expressed as Mean±SEM. […]

CN1C(=O)CN=C(c2ccccc2)c2cc(Cl)ccc21 [Positive control group, diazepam]
total distance of activity: 9698.94 ± 902.16 mm
